Data on 1 compound can be found in patent US11813277B2, “Methods and agents for modulating inflammation” (The Regents of the University of California, priority 2018, dated 2023).

Entries after “also recorded” stand apart in the source; their conditions may differ.

One assay deals with HepG2 hepatoma cells. The assay is described as follows: Maximal respiration in intact HepG2 hepatoma cells (positive control). The format is cell-based. Conditions: 3 μM etomoxir. Here is the method:
All respirometry studies were conducted in either a Seahorse XF96 or XFe96 Analyzer. All experiments were conducted at 37° C., and at pH 7.4 (intact cells) or 7.2 (permeabilized cells and isolated mitochondria). Calculation of respiratory parameters was made according to standard protocols (Divakaruni, A. S., Paradyse, A., Ferrick, D. A., Murphy, A. N., and Jastroch, M. (2014a) Analysis and interpretation of microplate-based oxygen consumption and pH data. Meth. Enzym 547, 509-54), and all rates were corrected for non-mitochondrial respiration/background signal by subtracting the oxygen consumption rate insensitive to rotenone plus antimycin A.
Detailed description of FIG. 5. (FIG. 5A) Maximal FCCP-stimulated respiration in response to 3 μM etomoxir in six cell types (experimental conditions in Materials and Methods). […] (n≥3 independent biological replicates). (FIG. 5B) (Left) Maximal respiration in HepG2 cells offered 8 mM glucose, 2 mM glutamine, and 2 mM pyruvate in the experimental medium with BPTES and UK5099 (both at 3 μM)±3 μM etomoxir. (n=4 independent biological replicates). (Right) Maximal respiration in 3T3-L1 adipocytes offered 1 mM glucose and 0.5 mM carnitine in the experimental medium with increasing concentrations of etomoxir. (n=3 independent biological replicates). […]

Assay [1] relates to Relma, Mgl2, Ym1, Fabp4, Arg1 expression. The assay is described as follows: qPCR of IL-4-associated genes in BMDMs. The class given is cell-based, mouse. The protocol: For all gene expression and flow cytometry experiments described below, day 6 BMDM were plated at 3×10^5 cell/well in 12-well plates. The next day, cells were treated with appropriate compounds (and duration as indicated in figures and below) in DMEM supplemented with 5% FBS, 2 mM L-glutamine, 100 units/mL, 100 μg/mL penicillin/streptomycin, 500 μM of sodium pyruvate and 5% v/v conditioned media containing macrophage colony stimulating factor (M-CSF).
For flow cytometry experiments involving etomoxir (FIG. 1G, FIG. 2A, FIG. 2D, FIG. 3A, FIG. 3B, FIG. 3G, FIG. 3H): BMDMs were mock-treated (media replacement only) or treated with 20 ng/mL of IL-4±3 μM or 200 μM of etomoxir for 48 hr. When measuring expression of M(IL-4)-associated genes in response to etomoxir (FIG. 1H, FIG. 2B), BMDMs were mock-treated or treated with 20 ng/mL of IL4±etomoxir as indicated for 24 hr.
For experiments involving respiratory chain inhibitors: BMDMs were mock-treated (media replacement only) or treated with 20 ng/mL of IL4±1.2 μM oligomycin (Oligo), 200 nM rotenone (Rot), 200 nM antimycin A (AntiA), 100 nM piericidin A (PierA), or 5 μM carboxyatractylate (CAT) for either 24 (FIG. 4G, FIG. 4H, FIG. 6G) or 48 hr (FIG. 4F, FIG. 7D). All inhibitors were given as co-treatments simultaneously with IL-4.
RNA was isolated with TRIzol, then cDNA was synthesized with high-capacity cDNA reverse transcription kit. KAPA SYBR FAST qPCR Master Mix kit and a LightCycler 480 were used for quantitative RT-PCR. Fold change related to the control group was calculated using […] with 36b4 as the reference gene.
For orientation: Quantitative PCR measures a nucleic acid by following its amplification.

The target of another assay is T1, CPT-1 (Mus musculus, UniProt P97742).
T1 construct: endogenous in cells; host or cells: mouse bone marrow-derived macrophages (BMDMs)
T1 sequence (P97742 1-773): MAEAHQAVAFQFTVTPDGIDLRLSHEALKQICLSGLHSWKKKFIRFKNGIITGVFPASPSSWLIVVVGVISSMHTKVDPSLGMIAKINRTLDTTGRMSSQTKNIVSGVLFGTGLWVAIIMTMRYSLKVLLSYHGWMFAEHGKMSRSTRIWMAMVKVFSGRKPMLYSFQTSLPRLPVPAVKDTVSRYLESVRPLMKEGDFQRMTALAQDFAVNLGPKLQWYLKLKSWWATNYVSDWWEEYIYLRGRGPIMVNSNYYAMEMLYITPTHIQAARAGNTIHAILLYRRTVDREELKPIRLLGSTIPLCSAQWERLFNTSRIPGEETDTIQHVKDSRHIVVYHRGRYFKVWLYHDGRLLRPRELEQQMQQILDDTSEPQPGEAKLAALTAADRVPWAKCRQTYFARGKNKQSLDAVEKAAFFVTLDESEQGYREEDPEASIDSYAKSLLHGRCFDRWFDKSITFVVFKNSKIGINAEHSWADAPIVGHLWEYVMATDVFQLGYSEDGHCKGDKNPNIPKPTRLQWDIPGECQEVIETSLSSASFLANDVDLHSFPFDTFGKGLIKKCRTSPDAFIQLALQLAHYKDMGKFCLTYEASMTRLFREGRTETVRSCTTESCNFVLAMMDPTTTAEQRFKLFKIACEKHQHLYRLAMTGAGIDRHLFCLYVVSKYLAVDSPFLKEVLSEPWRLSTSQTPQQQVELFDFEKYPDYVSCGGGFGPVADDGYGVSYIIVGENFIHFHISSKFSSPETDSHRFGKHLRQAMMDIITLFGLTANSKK
The assay is described as follows: Palmitoyl CoA-driven respiration in permeabilized BMDMs. The format is cell-based.

Turning to `CCOC(=O)[C@@]1(CCCCCCOc2ccc(Cl)cc2)CO1` [etomoxir], the respiration entry in the assay on HepG2 hepatoma cells is “sufficient to inhibit respiration”. For the same compound, in assay [1] (3 μM etomoxir, IL-4, 24 hr), the “gene expression of Relma, Mgl2, Ym1, Fabp4, Arg1” value is on record as “no change”. In addition, in assay [1] (200 μM etomoxir, IL-4, 24 hr), the “Fabp4 and Arg1 expression” value is given as “no change”; the “Relma, Mgl2, Ym1 expression” value was “blocked the induction; also recorded: significantly decreased”. Besides, the Fabp4 expression entry in assay [1] (etomoxir, IL-4) is given as “unresponsive”. The “sensitivity of respiration to 3 μM etomoxir” value on CPT-1 (conditional CPT KO BMDMs) is given as “largely absent”. Further, on CPT-1 (permeabilized BMDMs), the “EC50, FCCP-stimulated palmitoyl CoA-driven respiration” value is reported as “nanomolar” and the “concentration of saturable effect” value is given as “less than 3 μM”.
